Measurements taken from US5776950.
Where two headings read alike, the source gives them in different places.

Conditions: amide bond, 24-membered ring
[1] = 2-chloro-1-methylpyridinium iodide/TEA, DCM, 4.2 mM, 25.0 °C

For “H-MeLeu-dLac-MeLeu-dLac-MeLeu-[3-oxy-2-oxopiperidin-1-yl (delta-lactam, replaces Lac + N-Me)]Leu-dPhLac-OH?”, the ring closure, isolated yield (the molecule shown is the open-chain precursor, BOP-Cl/DIEA, CH2Cl2, 0.98 mM) was 48%.
“H-MeLeu-dLac-MeLeu-dPhLac-MeLeu-[3-oxy-2-oxopiperidin-1-yl (delta-lactam, replaces Lac + N-Me)]Leu-dPhLac-OH?” showed a ring closure, isolated yield (the molecule shown is the open-chain precursor, BOP-Cl/DIEA, CH2Cl2, 0.99 mM) of 65%.
For “cvlo(D-2-hydroxypropanoyl-L-pipecolyl-D-2-hydroxypropanoyl-N-methyl-L-leucyl-D-2-hydroxypropanoyl-N-methyl-L-leucyl-D-2-hydroxypropanoyl-N-methyl-L-leucyl)”, the ring closure, isolated yield (2-chloro-1-methylpyridinium iodide/TEA, DCM, 4.75 mM, 25.0 °C) was 34%.
Substance “cyclo(D-2-hydroxy-3-phenylpropanoyl-L-pipecolyl-D-2-hydroxypropanoyl-N-methyl-L-leucyl-D-2-hydroxy-3-phenylpropanoyl-N-methyl-L-leucyl-D-2-hydroxypropanoyl-N-methyl-L-leucyl)” has a ring closure, isolated yield [1] of 50%.
Work on “cyclo(D-2-hydroxy-3-phenylpropanoyl-L-prolyl-D-2-hydroxypropanoyl-N-methyl-L-leucyl-D-2-hydroxy-3-phenylpropanoyl-N-methyl-L-leucyl-D-2-hydroxypropanoyl-N-methyl-L-leucyl)” yielded a ring closure, isolated yield (2-chloro-1-methylpyridinium iodide/TEA, DCM, 5.9 mM, 25.0 °C) of 12%.
Substance “cyclo(D-2-hydroxypropanoyl-L-N-δ-tetrahydroquinoline-3-carboxyl-D-2- hydroxy-3-phenylpropanoyl-N-methyl-L-leucyl-D-2-hydroxypropanoyl-N-methyl-L-leucyl-D-2-hydroxy-3-phenylpropanoyl-N-methyl-L-leucyl)” has a ring closure, isolated yield [1] of 42%.
For “cylo(D-2-hydroxypropanoyl-L-N-α-tetrahydroquinoline-3-carboxyl-D-2-hydroxypropanoyl-N-methyl-L-leucyl-D-2-hydroxypropanoyl-N-methyl-L-leucyl-D- 2-hydroxypropanoyl-N-methyl-L-leucyl)”, the ring closure, isolated yield (2-chloro-1-methylpyridinium iodide/TEA, DCM, 6.0 mM, 25.0 °C) was 50%.
